Numbers after ± are expanded uncertainties.
Columns and labels:
[1] = Crystal; DTA
[2] = Molar enthalpy of transition or fusion; conditions: Crystal; DSC

- Normal melting temperature [1]: 212.7 ± 1.1 °C
- Molar enthalpy of transition or fusion [2]: 7.98 ± 0.359 kcal/mol
Structure (SMILES): COc1cc(C(=O)O)cc(OC)c1O [4-hydroxy-3,5-dimethoxybenzoic acid]

— the NIST ThermoML archive (doi:10.1021/acs.jced.7b00333)
